Laboratory results reported in patent US20060063187A1, “Modulation of XBP-1 activity for treatment of metabolic disorders” (priority 2004, published 2006).

Columns and labels:
Fao liver cells = assay: ER stress and insulin receptor signaling in Fao liver cells (immunoprecipitation / immunoblotting); type: cell-based, rat; settings: for serine (Ser307) phosphorylation of IRS-1: Fao cells treated with ER stress inducer (tunicamycin 5 μg/ml 3 h; thapsigargin 300 nM)
Method: (§1) FIG. 2 depicts that the induction of ER stress impairs insulin action through JNK mediated phosphorylation of IRS-1. (A) ER stress was induced in Fao liver cells by a 3-hour treatment with 5 μg/ml tunicamycin (Tun). Cells were subsequently stimulated with insulin (Ins). IRS-1 tyrosine and serine (Ser307) phosphorylation, Akt phosphorylation (Ser473), insulin receptor (IR) tyrosine phosphorylation, and their total protein levels were examined using either immunoprecipitation (IP) followed by immunoblotting (IB) or direct immunoblotting. (B) Quantitation of IRS-1 (tyrosine and Ser307), Akt (Ser473), and IR (tyrosine) phosphorylation under the experimental conditions described in (A) with normalization to protein levels for each molecule. (C) Inhibition of ER stress-induced (300 nM thapsigargin for 4 hours) Ser307 phosphorylation of IRS-1 by JNK-1 inhibitor, SP600125 (JNKi, 25 μM). (D) Quantitation of IRS-1 Ser307 phosphorylation under conditions described in (C). (E) Reversal of ER stress-induced inhibition of insulin-stimulated tyrosine phosphorylation (pY) of IRS-1 by a JNK inhibitor. (F) Quantitation of insulin-induced IRS-1 tyrosine phosphorylation levels described in (E). (G) JNK activity, Ser307 phosphorylation of IRS-1, and total IRS-1 levels at indicated times following tunicamycin treatment (Tun, 10 μg/ml for I hour) in IRE-1α^+/+ and IRE-1α^−/− fibroblasts. (H) Insulin-stimulated IRS-1 tyrosine phosphorylation and total IRS-1 levels following tunicamycin treatment (Tun, 10 μg/ml for 1 hour) in IRE-1α^+/+ and IRE-1α^−/− fibroblasts. […] All graphs show mean ±SEM from at least 2 independent experiments and statistical significance from the controls is indicated by * with p<0.005.
FIG. 8 depicts inhibition of insulin receptor signaling by thapsigargin-induced ER stress and the role of Ca^+2 levels in IRS-1 serine phosphorylation. (A) ER stress was induced in Fao cells by 1 hour treatment with 300 nM thapsigargin (Thap), and cells were subsequently stimulated with insulin (Ins). IRS-1 tyrosine phosphorylation (pY) and serine phosphorylation (pSer307), insulin receptor (IR) tyrosine phosphorylation, and total protein levels were examined using either immunoprecipitation (UP) followed by immunoblotting (IB) or direct immunobloting. (B) Fao cells were treated with sulindac sulfide (SS: 0, 7.5, 30, and 60 μM) for 45 minutes with or without an additional hour of exposure to 300 nM thapsigargin (Thap). IRS-1 serine phosphorylation and total IRS-1 protein levels were examined as described above.
Cells: FaO cells were cultured with RPMI 1640 (Gibco) containing 10% fetal bovine serum (FBS). At 70-80% confluency, cells were serum depleted for 12 hours before starting the experiments. Reagents including tunicamycin, thapsigargin, and JNK inhibitors were gently added to the culture dishes in the incubator to prevent any environmental stress. JNK inhibitors were added 1 hour before tunicamycine/thapsigargin treatment. The XBP-1^−/− MEF cells, IRE-1α^−/− MEF cells (provided by Dr. David Ron (New York University School of Medicine) and their wild type (WT) controls were cultured in Dulbecco's Modified Eagle Medium (DMEM) (Gibco) containing 10% FBS. Experiments in MEF cells were carried out similar to those in FaO cells except after 6 hours of serum depletion.
(§2) Protein Extracts From Cells: At the end of each treatment, cells were immediately frozen in liquid nitrogen and kept at −80° C. Protein extracts were prepared with a lysis buffer, containing 25 mM Tris-HCl (pH7.4), 2 mM Na3VO4, 10 mM NaF, 10 mM Na4P2O7, 1 mM EGTA, 1 mM EDTA, 1% NP40, 5 μg/ml leupeptin, 5 μg/ml aprotinin, 10 nM okadaic acid, and 1 mM PMSF. Immunoprecipitations and immunoblotting experiments were performed with 750 pg and 75 ug total protein, respectively.

IRE-1α−/− fibroblasts = assay: ER stress-induced JNK activation and IRS-1 phosphorylation in IRE-1α-deficient fibroblasts; type: cell-based, mouse; settings: tunicamycin 10 μg/ml for 1 hour
Method: FIG. 2 depicts that the induction of ER stress impairs insulin action through JNK mediated phosphorylation of IRS-1. (A) ER stress was induced in Fao liver cells by a 3-hour treatment with 5 μg/ml tunicamycin (Tun). Cells were subsequently stimulated with insulin (Ins). IRS-1 tyrosine and serine (Ser307) phosphorylation, Akt phosphorylation (Ser473), insulin receptor (IR) tyrosine phosphorylation, and their total protein levels were examined using either immunoprecipitation (IP) followed by immunoblotting (IB) or direct immunoblotting. (B) Quantitation of IRS-1 (tyrosine and Ser307), Akt (Ser473), and IR (tyrosine) phosphorylation under the experimental conditions described in (A) with normalization to protein levels for each molecule. (C) Inhibition of ER stress-induced (300 nM thapsigargin for 4 hours) Ser307 phosphorylation of IRS-1 by JNK-1 inhibitor, SP600125 (JNKi, 25 μM). (D) Quantitation of IRS-1 Ser307 phosphorylation under conditions described in (C). (E) Reversal of ER stress-induced inhibition of insulin-stimulated tyrosine phosphorylation (pY) of IRS-1 by a JNK inhibitor. (F) Quantitation of insulin-induced IRS-1 tyrosine phosphorylation levels described in (E). (G) JNK activity, Ser307 phosphorylation of IRS-1, and total IRS-1 levels at indicated times following tunicamycin treatment (Tun, 10 μg/ml for I hour) in IRE-1α^+/+ and IRE-1α^−/− fibroblasts. […]

XBP-1−/− MEF cells = assay: ER stress response to low dose tunicamycin in XBP-1−/− MEF cells; type: cell-based, mouse
From the text: (§3) FIG. 3 depicts that alteration of the ER stress response by manipulation of XBP-1 levels leads to alterations in insulin receptor signaling. ER stress responses in XBP-1s overexpressing cells, XBP-1^−/− cells, and their controls. (A) Induction of XBP-1s expression upon removal of doxycycline in mouse embryonic fibroblasts (MEF). (B) Southern blot analysis of XBP-1^−/− MEF cells and their WT controls for the wild type (9.4 kb) and targeted (6.5 kb) alleles. (C) PERK phosphorylation (p-PERK) and JNK activity in the XBP-1s overexpressing cells and their control cells (−Dox and +Dox, respectively) upon tunicamycin treatment (Tun, 2 μg/ml). (D) PERK phosphorylation and JNK activity upon low dose tunicamycin treatment (Tun, 0.5 μg/ml) in XBP-1^−/−-MEF cells and their WT controls. (E) IRS-1 Ser307 phosphorylation upon tunicamycin treatment (Tun, 2 μg/ml) in the XBP-1s overexpressingcells and the control cells (−Dox and +Dox, respectively), detected using immunoprecipitation (IP) of IRS-1 followed by immunoblotting (IB) with an IRS-1 phosphoserine 307-specific antibody. […] The ratio of IRS-1 tyrosine phosphorylation to total IRS-1 level was summarized from independent experiments and was presented in the graph. (G) IRS-1 Ser307 phosphorylation upon tunicamycin treatment (Tun, 0.5 μg/ml) in XBP-1^−/− cells and WT controls was detected as described in panel C. […]

[1] = test system: mouse embryonic fibroblasts (MEF) without exogenous XBP-1s expression; assay: ER stress response in MEF-tet-off fibroblasts without exogenous XBP-1s expression; type: cell-based; settings: tunicamycin 2 μg/ml, fibroblasts without exogenous XBP-1s (+Dox)
From the text: FIG. 3 depicts that alteration of the ER stress response by manipulation of XBP-1 levels leads to alterations in insulin receptor signaling. ER stress responses in XBP-1s overexpressing cells, XBP-1^−/− cells, and their controls. (A) Induction of XBP-1s expression upon removal of doxycycline in mouse embryonic fibroblasts (MEF). (B) Southern blot analysis of XBP-1^−/− MEF cells and their WT controls for the wild type (9.4 kb) and targeted (6.5 kb) alleles. (C) PERK phosphorylation (p-PERK) and JNK activity in the XBP-1s overexpressing cells and their control cells (−Dox and +Dox, respectively) upon tunicamycin treatment (Tun, 2 μg/ml). (D) PERK phosphorylation and JNK activity upon low dose tunicamycin treatment (Tun, 0.5 μg/ml) in XBP-1^−/−-MEF cells and their WT controls. (E) IRS-1 Ser307 phosphorylation upon tunicamycin treatment (Tun, 2 μg/ml) in the XBP-1s overexpressingcells and the control cells (−Dox and +Dox, respectively), detected using immunoprecipitation (IP) of IRS-1 followed by immunoblotting (IB) with an IRS-1 phosphoserine 307-specific antibody. […] The ratio of IRS-1 tyrosine phosphorylation to total IRS-1 level was summarized from independent experiments and was presented in the graph. (G) IRS-1 Ser307 phosphorylation upon tunicamycin treatment (Tun, 0.5 μg/ml) in XBP-1^−/− cells and WT controls was detected as described in panel C. […] The ratio of IRS-1 tyrosine phosphorylation to total IRS-1 level was summarized from independent experiments and presented in the graph. All graphs show mean±SEM from at least 2 independent experiments and statistically significance from the controls is indicated by * with p<0.005.
Overexpression of XBPIs in MEFs: MEF-tet-off cells (Clontech) were cultured in DMEM with 100 μg/ml G418 and 1 μg/ml doxycycline. The MEF-tet-off cells express exogenous tTA (tetracycline-controlled transactivator) protein, which binds to TRE (tetracycline response element) and activates transcription only in the absence of tetracycline or doxycycline. The cDNA of the spliced form of XBP-1 was ligated into pTRE2hyg2 plasmid (Clontech). The MEF-tet-off cells were transfected with the TRE2hyg2-XBP-1s plasmid, followed by selection in the presence of […] hygromycine B. Individual clones of stable transfectants were isolated and doxycycline-dependent XBP-1s expression was confirmed by immunoblotting.
as §2, with “Immunoprecipitations and immunoblotting experiments were performed with 750 pg and 75 ug total protein, respectively.” left out

[2] = test system: IRE-1α+/+ (WT) fibroblasts; assay: ER stress-induced JNK activation and IRS-1 phosphorylation in wild type fibroblasts; type: cell-based, mouse; settings: tunicamycin 10 μg/ml for 1 hour
Method: as §1
Cells: FaO cells were cultured with RPMI 1640 (Gibco) containing 10% fetal bovine serum (FBS). At 70-80% confluency, cells were serum depleted for 12 hours before starting the experiments. Reagents including tunicamycin, thapsigargin, and JNK inhibitors were gently added to the culture dishes in the incubator to prevent any environmental stress. […]

WT MEF cells = assay: ER stress response to low dose tunicamycin in WT MEF cells; type: cell-based, mouse; settings: low dose of tunicamycin 0.5 μg/ml
From the text: as §3

Row | Molecule | insulin-stimulated tyrosine phosphorylation of IRS-1 (Fao liver cells; Fao cells pretreated with ER stress inducer (tunicamycin 5 μg/ml 3 h; thapsigargin 300 nM 1 h), then insulin) | serine (Ser307) phosphorylation of IRS-1 (Fao liver cells) | insulin-induced Akt phosphorylation (Ser473) (Fao liver cells; Fao cells, tunicamycin pretreatment 5 μg/ml 3 h, then insulin) | insulin-stimulated tyrosine phosphorylation of IRS-1 (IRE-1α−/− fibroblasts; IRE-1α−/− cells, then insulin) | phosphorylation of IRS-1 at Ser307 (IRE-1α−/− fibroblasts; IRE-1α−/− fibroblasts) | ER stress response (PERK phosphorylation, JNK activation) (XBP-1−/− MEF cells; low dose of tunicamycin 0.5 μg/ml, XBP-1−/− MEFs) | IRS-1 serine (Ser307) phosphorylation (XBP-1−/− MEF cells; tunicamycin 0.5 μg/ml, XBP-1−/− MEFs compared with XBP-1+/+ controls) | JNK activation [1] | PERK phosphorylation [1] | peak of PERK phosphorylation [1] [h] | start of PERK phosphorylation [1] [min] | insulin-stimulated tyrosine phosphorylation of IRS-1 ([2]; WT cells, then insulin) | JNK activation ([2]; WT fibroblasts) | phosphorylation of IRS-1 at Ser307 ([2]; WT fibroblasts) | ER stress (PERK phosphorylation, JNK activation) (WT MEF cells) | thapsigargin-induced IRS-1 serine phosphorylation (Fao liver cells; sulindac sulfide 45 minutes, then additional hour of 300 nM thapsigargin) | Ser307 phosphorylation of IRS-1 (Fao liver cells; sulindac sulfide alone (0, 7.5, 30, 60 μM, 45 minutes)) | insulin receptor signaling (Fao liver cells; Fao cells, thapsigargin 300 nM 1 h, then insulin)
1 | tunicamycin | significantly decreased | significant increase | suppressed | no such effect was detected | not | strong ER stress response | strongly induced | rapid and robust activation | strong | 3 to 4 | 30 | inhibited | strong activation | stimulated | failed to stimulate significant ER stress | – | – | –
2 | CSc1ccc(/C=C2/C(C)=C(CC(=O)O)c3cc(F)ccc32)cc1 [sulindac sulfide] | – | – | – | – | – | – | – | – | – | – | – | – | – | – | – | did not interfere | no effect | –
3 | C/C=C(/C)C(=O)O[C@H]1C(C)=C2[C@H]([C@@H]1OC(=O)CCCCCCC)[C@@](C)(OC(C)=O)C[C@H](OC(=O)CCC)[C@@]1(O)[C@H]2OC(=O)[C@@]1(C)O [thapsigargin] | – | increased | – | – | – | – | – | – | – | – | – | – | – | – | – | – | – | suppressed
